Patent publication US8802209B2, “Multi-layered plastic polymeric container for the storage of pharmaceutical compositions” (Ceva Santé Animale, priority 2007, dated 2014)

Assay: Analysis of additives in the multi-layered plastic container before and after sterilization by irradiation
Type: physicochemical
Settings: After irradiation - dose of 25 kGy
Procedure: A physico-chemical study of the outer layers made of polypropylene before and after irradiation at 25 kGy was performed.

Row | Compound | Quantity of additives in polypropylene (ppm)
1 | CC(C)(C)c1ccc(OP(Oc2ccc(C(C)(C)C)cc2C(C)(C)C)Oc2ccc(C(C)(C)C)cc2C(C)(C)C)c(C(C)(C)C)c1 [IRGAPHOS 168, phosphite tris(2,4-bis(1,1-dimethylethyl)-phenyl)] | Not detected
2 | CC(C)(C)c1cc(Cn2c(=O)n(Cc3cc(C(C)(C)C)c(O)c(C(C)(C)C)c3)c(=O)n(Cc3cc(C(C)(C)C)c(O)c(C(C)(C)C)c3)c2=O)cc(C(C)(C)C)c1O [IRGANOX 3114, 1,3,5-tris(3,5-di-tert-butyl-4-hydroxybenzyl)-s-triazine-2,4,6(1H,3H,5H)-trione] | Not detected
3 | CC(C)(C)c1cc(CCC(=O)OCC(COC(=O)CCc2cc(C(C)(C)C)c(O)c(C(C)(C)C)c2)(COC(=O)CCc2cc(C(C)(C)C)c(O)c(C(C)(C)C)c2)COC(=O)CCc2cc(C(C)(C)C)c(O)c(C(C)(C)C)c2)cc(C(C)(C)C)c1O [IRGANOX 1010, pentaerythrityl tetrakis(3-(3,5-di-tert-butyl-4-hydroxyphenyl)-propionate)] | Not detected
